One test concerns the target T1, Cytochrome P450 2B1 (Rattus norvegicus, UniProt P00176).
T1 sequence (P00176 whole entry): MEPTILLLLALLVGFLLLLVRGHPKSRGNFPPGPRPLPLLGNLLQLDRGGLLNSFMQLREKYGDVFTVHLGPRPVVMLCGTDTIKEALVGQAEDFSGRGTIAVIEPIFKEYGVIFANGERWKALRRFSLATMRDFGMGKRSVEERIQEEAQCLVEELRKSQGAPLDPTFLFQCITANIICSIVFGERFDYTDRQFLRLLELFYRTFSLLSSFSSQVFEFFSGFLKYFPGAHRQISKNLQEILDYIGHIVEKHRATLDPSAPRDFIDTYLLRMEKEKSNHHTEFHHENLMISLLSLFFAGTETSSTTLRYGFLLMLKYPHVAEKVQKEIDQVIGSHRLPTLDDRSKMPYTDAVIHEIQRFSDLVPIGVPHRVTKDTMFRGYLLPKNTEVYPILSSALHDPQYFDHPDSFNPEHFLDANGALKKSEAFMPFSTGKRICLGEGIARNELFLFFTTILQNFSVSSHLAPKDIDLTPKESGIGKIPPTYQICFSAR
As to the kind of experiment: Binding affinity to rat CYP2B1. The class given is ADME.

For a further test, the target named is T2, Cytochrome P450 1A1 (Homo sapiens, UniProt P04798).
T2 sequence (P04798 whole entry): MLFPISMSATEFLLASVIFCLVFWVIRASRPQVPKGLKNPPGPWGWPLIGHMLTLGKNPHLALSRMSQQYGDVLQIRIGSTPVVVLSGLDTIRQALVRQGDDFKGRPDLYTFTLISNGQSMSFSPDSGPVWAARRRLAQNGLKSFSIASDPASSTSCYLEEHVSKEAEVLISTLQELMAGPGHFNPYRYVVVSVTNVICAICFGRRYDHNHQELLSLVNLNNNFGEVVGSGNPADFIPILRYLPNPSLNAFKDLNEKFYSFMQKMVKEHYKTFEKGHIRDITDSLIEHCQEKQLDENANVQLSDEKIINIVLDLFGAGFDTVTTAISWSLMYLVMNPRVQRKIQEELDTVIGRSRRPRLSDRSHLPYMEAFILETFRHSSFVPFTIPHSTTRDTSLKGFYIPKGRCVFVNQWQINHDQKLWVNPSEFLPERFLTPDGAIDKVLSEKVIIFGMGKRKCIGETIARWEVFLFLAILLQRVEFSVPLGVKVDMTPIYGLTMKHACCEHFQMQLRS
The test can be described thus: Binding affinity to human CYP1A1. Format: ADME.

The nature of test [1]: Binding affinity to human CYP1A1-heme complex.
The nature of test [2]: Binding affinity to rat CYP2B1-heme complex.

SMILES strings stand for the structures.

Regarding `O=C(O)CCC(=O)Nc1ccc(O)cc1`, the Kd (as a rule, the concentration at which binding is half-saturated) at Cytochrome P450 2B1 stood at 1.12 µM; at Cytochrome P450 1A1, 2.25 µM; in test [1], 0.789 µM; in test [2] it was 1.77 µM.

Regarding `O=C1CCC(=O)N1c1ccc(O)cc1`, the Kd was found to be 24 µM on Cytochrome P450 2B1, 13.5 µM at Cytochrome P450 1A1, 3.96 µM in test [1] and 1.57 µM in test [2].

Consider `CC(=O)Nc1ccc(O)cc1` [ACETAMINOPHEN], for which the Kd on Cytochrome P450 1A1 amounted to 19.1 µM; in test [1] it was 5.79 µM; in test [2], 6.64 µM.

The record behind these values is ChEMBL document CHEMBL1275297, “Homology modeling and molecular dynamics of CYP1A1 and CYP2B1 to explore the metabolism of aryl derivatives by docking and experimental assays” (Eur J Med Chem, 2010).
